Assays:
[1] = crystallization / phase stability of fatty acids in the MCT composition; assay type: physicochemical
Method: The first issue was one of phase stability, i.e., with higher levels of C12 fatty acid, the fatty acid precipitates out of the MCT matrix when essential oils are also present, leaving just the essential oils and the MCT carrier in solution.
The MCT as a dilutant at high enough percentage by weight in the composition prevents undesirable crystallization down to about 45-50° F. (with only C10 fatty acid, the composition is stable to about 12% concentration in the formula and with only C12 fatty acid, the composition is stable up to about 7%). It was also determined that the combination of either C8 or C10 with the C12 in a ratio of 1:4 or greater results in no undesirable crystallization.
A 100% substitution of the MCT with these yielded a clear product at cooler temperatures. […] Other co-solvents recognized by the present disclosure as useful in preventing crystallization of fatty acids from the composition include alcohols such as methanol, ethanol, propanol, and isopropanol. However, as indicated earlier, these alcohols are drying to the skin and should be avoided, if at all possible, in skin-care type repellent formulas.

[2] = tested on: mosquito, biting fly, tick; assay: repellent behaviour of C12 fatty acid on treated skin; assay type: in vivo; conditions: insect will land but not bite on treated skin
[3] = 100% substitution of the MCT, cooler temperatures

## CCCCCCCCCCCC(=O)O [C12 fatty acid, lauric acid]
[1]; only this fatty acid, in MCT as dilutant
  concentration in the formula up to which the composition is stable (no crystallization): about 7%
[1]; without essential oils
  solubility in MCTs: completely soluble
[2]
  type of repellency: close-proximity or contact repellent

## CCCCCCCCCCCCCC(=O)OC(C)C [isopropyl myristate]
[1]
  effect of co-solvent on crystallization when added to the composition: limit crystallization
[1]; 25% substitution level
  appearance after substitution of the MCT by the co-solvent: significant benefit but not to the total clarity
[1]; [3]
  appearance after substitution of the MCT by the co-solvent: clear product

## CCCCCCCCCC(=O)OC [methyl decanoate]
[1]
  effect of co-solvent on crystallization when added to the composition: limit crystallization
[1]; 25% substitution level
  appearance after substitution of the MCT by the co-solvent: significant benefit but not to the total clarity
[1]; [3]
  appearance after substitution of the MCT by the co-solvent: clear product

Reference: US20230134377A1, “INSECT-REPELLENT PERSONAL-CARE COMPOSITION” (priority 2021, published 2023)
